Results reported in US20060003989A1, “Compositions and methods using acetylcholinesterase (ACE) inhibitors to treat central nervous system (CNS) disorders in mammals” (priority 2002, published 2006).
Where “and” joins values, the source holds several entries; their conditions need not be identical. Equal entries are not always repeated. Structures can show the parent of a compound that is named as a salt.

How the values were obtained:
[1] = system: cholinesterase; details: in rats; cited from earlier work
[2] = Solubility test in purified water (concentration by HPLC)
[3] = cited from earlier work
[4] = system: ferrets; experiment: Emetic response assay in ferrets; details: observed for 4 hours
Protocol: • 8 naïve ferrets/dosing group; Nasal versus Oral • Emetic Response Assay • The assay was based on a validated method. Ferrets were monitored and observed for episodes of retching and/or vomiting for 4 hours. • Two formulations dosed: • Emetic Response Assay • The assay was based on a validated method.

[5] = Intranasal vs oral galantamine PK (plasma) in ferrets
[6] = Intranasal vs oral galantamine PK in canine subject (plasma, CSF); details: dog, 0.8 mg/kg; for Tmax: plasma
[7] = Rivastigmine intranasal vs oral PK in rats (CSF and plasma); details: single intranasal dose
Protocol: The formulation is administered intranasally or by gastric insertion of a capsule containing the commercial formulation to 12 groups of 6 rats prepped with an indwelling jugular cannula and heparin lock. […] Subsequently, each subject undergoes lumbar puncture with local anaesthesia (xylocalne s.c.), with the retrieval of 50 uL of cerebralspinal fluid (CSF). A paired blood sample from each animal is collected. By assigning groups to different timepoints, the whole PK curve can be assembled. The first CSF sample is collected 5 minutes post dosing and subsequent samples were collected at 20, 50, 75, 100 and 400 minutes.
CSF samples are frozen until analysis.

[8] = system: in vitro epithelial tissue model; experiment: TER in in vitro epithelial tissue model with PN159 and galantamine lactate; type: cell-based; details: 25, 50, 100 μM PN159 in the presence of 40 mg/ml galantamine lactate; controls applied apically

O=C(CCC1CCN(Cc2ccccc2)CC1)c1ccc2c(c1)NCCCC2 [TAK-147, 3-[1-(phenylmethyl)-4-piperidinyl]-1-(2,3,4,5-tetrahydro-1H-1-benzazepin-8-yl)-1-propanone]
minimal therapeutic concentration (MTC) [1]: 1.1 nmol/gm

COc1ccc2c3c1O[C@H]1C[C@@H](O)C=C[C@@]31CCN(C)C2.O=C(O)[C@H](O)[C@@H](O)[C@H](O)[C@H](O)CO [galantamine gluconate]
solubility in water [2]: ~1390 mM

COc1ccc2c3c1O[C@H]1C[C@@H](O)C=C[C@@]31CCN(C)C2 [galantamine hydrobromide]
generally reported solubility in water [3]: 50 mM
solubility ([2]; purified water, thermodynamic from solid): ~35000 µg/mL and ~121000 µM

CC(O)C(=O)O.COc1ccc2c3c1O[C@H]1C[C@@H](O)C=C[C@@]31CCN(C)C2 [galantamine lactate]
solubility in water [2]: ~1390 mM

COc1ccc2c3c1O[C@H]1C[C@@H](O)C=C[C@@]31CCN(C)C2 [galantamine]
incidence of retching / emesis, intranasal vs oral [4]: dramatic reduction in emesis
bioavailability ([5]; ferret, plasma, other: intranasal compared to oral): ~70%
Tmax, plasma, intranasal compared to oral ([5]; ferrets, intranasal 200 mg/ml formulation vs Reminyl oral solution): decreased Tmax
Cmax, plasma, intranasal compared to oral ([5]; ferrets, intranasal vs oral): about 4 fold
Tmax in CSF, intranasal vs oral [6]: same trend was observed in the CSF
Tmax ([6]; inhaled or intranasal): ~0.5 h
Tmax ([6]; po): 2 to 3 h

CCN(C)C(=O)Oc1cccc([C@H](C)N(C)C)c1 [rivastigmine]
rivastigmine concentration in CSF after intranasal administration [7]: peaks at a level higher than therapeutic levels reported for plasma following oral dosage in man

Nc1c2c(nc3ccccc13)CCCC2 [tacrine]
minimal therapeutic concentration (MTC) [1]: 3.5 nmol/gm

triton X
effect on TER [8]: did reduce TER
